The text below walks through data of patent publication US6858638B2, “Substituted indazoles, compositions containing them, method of production and use” (Aventis Pharma S.A., priority 2002, dated 2005).

What all share (type): biochemical
One test addresses T1, human FAK (Homo sapiens, UniProt Q05397).
T1 construct: The complete cDNA of human FAK; made in house; host or cells: baculovirus expression system (vector pFastBac HTc)
Briefly: FAK autophosphorylation inhibition, time resolved fluorescence (HTRF) assay. The following applies: 10 μM (values without asterisk); read-out: FAK % inhib at 10 μM. The method, then:
The inhibitory activity of the compounds on FAK is determined by measuring the inhibition of the autophosphorylation of the enzyme using a time resolved fluorescence (HTRF) assay.
The complete cDNA of human FAK, the N-terminal end of which was labeled with histidine, was cloned into a baculovirus expression vector pFastBac HTc. The protein was expressed and purified to approximately 70% homogeneity.
The kinase activity is determined by incubating the enzyme (6.6 μg/ml) with various concentrations of test compound in a 50 mM Hepes buffer, pH=7.2, containing 10 mM MgCl2, 100 μM Na3VO4 and 15 μM d'ATP for 1 hour at 37° C. The enzyme reaction is stopped by adding Hepes buffer, pH=7.0, containing […], 133 mM EDTA and 0.1% BSA, and the labeling is carried out, over 1 to 2 hours at ambient temperature, by adding to this buffer an anti-Histidine antibody labeled with XL665 and a monoclonal antibody phosphospecific for tyrosine, conjugated to europium cryptate (Eu-K). The characteristics of the two fluorophores are available in G. Mathis et al., Anticancer Research, 1997, 17, pages 3011-3014. The transfer of energy from the excited europium cryptate to the XL665 acceptor is proportional to the degree of autophosphorylation of FAK. The long-lived signal specific for XL-665 is measured in a Packard Discovery plate counter. All the assays are carried out in duplicate and the mean of the two assays is calculated. The inhibition of the FAK autophosphorylation activity with compounds of the invention is expressed as percentage inhibition compared to a control whose activity is measured in the absence of test compound. The [signal at 665 nm/signal at 620 nm] ratio is used for the calculation of the % inhibition.
Background: TR-FRET usually uses a lanthanide donor and a delayed reading to cut background.

A further test concerns the target T2, human KDR enzyme (Homo sapiens, UniProt P35968).
T2 construct: The cytoplasmic domain of the human KDR enzyme; GST; made in house; host or cells: SF21 insect cells (baculovirus)
The test is described as follows: KDR substrate (PLCγ) phosphorylation, scintillation assay. The following applies: 10 μM; read-out: KDR % inhib at 10 μM. The method, then: The inhibitory effect of the compounds is determined in an assay of substrate phosphorylation by the KDR enzyme in vitro using a scintillation technique (96-well plate, NEN).
The cytoplasmic domain of the human KDR enzyme was cloned in the form of a GST fusion into the baculovirus expression vector pFastBac. The protein was expressed in SF21 cells and purified to approximately 60% homogeneity.
The KDR kinase activity is measured in 20 mM MOPS, 10 mM MgCl2, 10 mM MnCl2, 1 mM DTT, 2.5 mM EGTA, 10 mM β-glycerophosphate, pH=7.2, in the presence of 10 mM MgCl2, 100 μM Na3VO4, 1 mM NaF. 10 μl of the compound are added to 70 μl of kinase buffer containing 100 ng of KDR enzyme at 4° C. The reaction is triggered by adding 20 μl of solution containing 2 μg of substrate (SH2-SH3 fragment of PLCγ expressed in the form of a GST fusion protein), 2 μCi γ^33P[ATP] and 2 μM cold ATP. After incubation for 1 hour at 37° C., the reaction is stopped by adding 1 volume (100 μl) of 200 mM EDTA. The incubation buffer is removed and the wells are washed three times with 300 μl of PBS. The radioactivity is measured in each well using Top Count NXT radioactivity counter (Packard).
The background noise is determined by measuring the radioactivity in four different wells containing the radioactive ATP and the substrate alone.
A control for total activity is measured in four different wells containing all the reagents (γ^33P-[ATP], KDR and PLCγ substrate) but in the absence of compound.
The inhibition of the KDR activity with the compound of the invention is expressed as percentage inhibition of the control activity determined in the absence of compound.
The compound SU5614 (Calbiochem) (1 μM) is included in each plate as an inhibition control.

The target of another test is T3, Aurora2 kinase (Homo sapiens, UniProt O14965).
T3 construct: A complete recombinant Aurora2 enzyme; His tag (N); made in house; host or cells: E. coli
T3 sequence (O14965 1-403): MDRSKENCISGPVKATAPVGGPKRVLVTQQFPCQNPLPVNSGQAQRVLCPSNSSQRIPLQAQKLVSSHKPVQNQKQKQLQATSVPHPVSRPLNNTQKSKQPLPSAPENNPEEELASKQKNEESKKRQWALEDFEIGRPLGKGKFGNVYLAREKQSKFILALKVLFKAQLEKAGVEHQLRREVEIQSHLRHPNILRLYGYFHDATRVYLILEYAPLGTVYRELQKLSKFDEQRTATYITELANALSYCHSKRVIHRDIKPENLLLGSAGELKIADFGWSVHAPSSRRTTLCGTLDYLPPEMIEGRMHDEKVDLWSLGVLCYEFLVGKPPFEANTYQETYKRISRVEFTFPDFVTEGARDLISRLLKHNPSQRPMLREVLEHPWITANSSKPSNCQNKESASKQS
Briefly: Aurora2 kinase radioactivity scintillation assay using nickel chelate (NuMA substrate). The following applies: 10 μM; read-out: Aurora2 % inhib at 10 μM. The method, then:
The inhibitory effect of compounds with respect to the Aurora2 kinase is determined with a radioactivity scintillation assay using nickel chelate.
A complete recombinant Aurora2 enzyme, the N-terminal end of which was labeled with histidine, was expressed in E. coli and purified to a quality close to homogeneity.
The C-terminal fragment (Q1687-H2101) of a NuMA (Nuclear protein that associates with the Mitotic Apparatus) expressed in E. coli, and the N-terminal end of which was labeled with histidine, was purified by nickel chelate chromatography and used as substrate in the Aurora2 kinase assay. In order to determine the kinase activity, the NuMA substrate is equilibrated by chromatography on a Pharmacia PD10 column, in a buffer (50 mM Tris HCl, pH7.5, 50 mM NaCl, 10 mM MgCl2) to which 10% (v/v) of glycerol and 0.05% (w/v) of NP40 have been added.
The kinase acivitity of Aurora2 is measured by scintillation with nickel chelate (New England Nuclear, model SMP107). Each well contains 100 μl of the following solution: 0.02 μM of Aurora2; 0.5 μM of NuMA substrate; 1 μM of ATP to which 0.5 μCi of ATP-[^33P] has been added. The solutions are incubated for 30 minutes at 37° C. The assay buffer is then removed and the wells are rinsed twice with 300 μl of kinase buffer. The radioactivity is measured in each well using a Packard Model Top Count NXT device.
The background noise is deduced from the measurement of radioactivity by measuring, in duplicate, in wells containing the radioactive ATP alone containing buffered kinase treated in the same way as the other samples.
The activity of the control is determined by measuring, in duplicate, the radioactivity in the complete assay mixture (ATP, Aurora2 and the NuMA substrate) in the absence of test compound.
The inhibition of the Aurora2 with a compound of the invention is expressed as percentage inhibition of the control activity in the absence of test compound. Staurosporine is added to each plate as an inhibition control.

T1 sequence (Q05397 whole entry): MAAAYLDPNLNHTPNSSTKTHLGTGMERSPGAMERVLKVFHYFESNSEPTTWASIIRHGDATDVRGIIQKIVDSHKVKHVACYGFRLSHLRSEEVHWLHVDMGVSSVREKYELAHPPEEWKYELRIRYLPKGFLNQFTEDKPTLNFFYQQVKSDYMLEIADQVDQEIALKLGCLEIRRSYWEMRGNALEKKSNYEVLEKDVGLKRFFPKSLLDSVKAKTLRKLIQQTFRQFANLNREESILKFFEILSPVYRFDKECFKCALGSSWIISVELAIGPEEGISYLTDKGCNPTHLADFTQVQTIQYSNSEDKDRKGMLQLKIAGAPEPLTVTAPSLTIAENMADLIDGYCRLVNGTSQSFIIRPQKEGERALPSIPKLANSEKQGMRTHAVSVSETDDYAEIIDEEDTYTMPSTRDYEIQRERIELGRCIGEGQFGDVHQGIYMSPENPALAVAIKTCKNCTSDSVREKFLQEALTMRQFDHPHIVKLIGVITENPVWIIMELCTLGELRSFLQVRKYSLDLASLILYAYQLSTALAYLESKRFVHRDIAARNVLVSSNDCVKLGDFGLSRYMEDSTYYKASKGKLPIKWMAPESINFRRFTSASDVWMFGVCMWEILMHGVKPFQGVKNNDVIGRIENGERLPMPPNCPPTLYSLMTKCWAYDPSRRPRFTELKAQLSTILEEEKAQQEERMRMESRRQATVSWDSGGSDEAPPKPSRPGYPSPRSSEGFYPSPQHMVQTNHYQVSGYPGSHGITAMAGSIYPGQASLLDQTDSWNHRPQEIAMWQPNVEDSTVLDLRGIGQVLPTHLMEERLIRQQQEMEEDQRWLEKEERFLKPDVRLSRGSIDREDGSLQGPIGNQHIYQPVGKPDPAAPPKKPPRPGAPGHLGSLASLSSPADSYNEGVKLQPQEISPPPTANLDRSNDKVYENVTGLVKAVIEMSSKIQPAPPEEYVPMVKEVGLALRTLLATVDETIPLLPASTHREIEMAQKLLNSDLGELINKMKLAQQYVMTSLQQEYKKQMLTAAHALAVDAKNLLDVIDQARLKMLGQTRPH
T2 sequence (P35968 786-1356 limits assumed): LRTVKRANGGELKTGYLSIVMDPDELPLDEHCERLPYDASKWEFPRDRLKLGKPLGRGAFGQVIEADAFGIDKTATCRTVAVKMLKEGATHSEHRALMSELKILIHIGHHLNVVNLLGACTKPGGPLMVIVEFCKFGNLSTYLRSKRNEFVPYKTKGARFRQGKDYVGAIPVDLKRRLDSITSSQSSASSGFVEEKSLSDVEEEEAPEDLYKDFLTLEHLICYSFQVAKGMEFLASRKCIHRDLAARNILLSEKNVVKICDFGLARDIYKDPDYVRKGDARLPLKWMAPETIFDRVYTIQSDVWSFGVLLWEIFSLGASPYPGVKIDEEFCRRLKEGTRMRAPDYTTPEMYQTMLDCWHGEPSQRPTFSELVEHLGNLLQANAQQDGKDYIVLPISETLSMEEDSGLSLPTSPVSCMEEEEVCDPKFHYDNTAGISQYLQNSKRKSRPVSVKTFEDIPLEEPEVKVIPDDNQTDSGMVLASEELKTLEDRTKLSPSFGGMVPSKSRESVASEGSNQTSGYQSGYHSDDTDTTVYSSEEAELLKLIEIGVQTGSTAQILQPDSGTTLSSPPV

Turning to `O=S(=O)(/C=C/c1ccccc1)Nc1ccc2[nH]nc(-c3ccccc3)c2c1` [Example 126, (E)-2-Phenyl-N-(3-phenyl-1H-indazol-5-yl)-ethylenesulfonamide], the inhibition at 10 µM on human FAK was 7%; at human KDR enzyme, 58%; at Aurora2 kinase it was 50%.

Regarding `CCS(=O)(=O)Nc1ccc2[nH]nc(-c3ccccc3)c2c1` [Example 127, N-(3-Phenyl-1H-indazol-5-yl)-ethanesulfonamide], the results for the inhibition at 10 µM on human FAK, on human KDR enzyme and on Aurora2 kinase were 32%, 63% and 78%, respectively.

As for `CCCS(=O)(=O)Nc1ccc2[nH]nc(-c3ccccc3)c2c1` [Example 128, N-(3-Phenyl-1H-indazol-5-yl)propanesulfonamide], the inhibition at 10 µM at human FAK turned out to be 55%; at human KDR enzyme, 49%; on Aurora2 kinase, 87%.

With `N#Cc1ccc(S(=O)(=O)Nc2ccc3[nH]nc(-c4ccccc4)c3c2)cc1` [Example 143, 4-Cyano-N-(3-phenyl-1H-indazol-5-yl)-benzenesulfonamide], the values for the inhibition at 10 µM on human FAK, on human KDR enzyme and on Aurora2 kinase were 23%, 87% and 64%, respectively.

For the compound `CCCCOc1ccc(S(=O)(=O)Nc2ccc3[nH]nc(-c4ccccc4)c3c2)cc1` [Example 145, 4-Butoxy-N-(3-phenyl-1H-indazol-5-yl)-benzenesulfonamide], the inhibition at 10 µM was found to be 0% at human FAK, 14% at human KDR enzyme and 26% on Aurora2 kinase.

Regarding `CC(=O)Nc1ccc(S(=O)(=O)Nc2ccc3[nH]nc(-c4ccccc4)c3c2)cc1Cl` [Example 146, N-[2-Chloro-4-(3-phenyl-1H-indazol-5-ylsulfamoyl)phenyl]-acetamide], the inhibition at 10 µM at human FAK was found to be 14%; on human KDR enzyme, 47%; on Aurora2 kinase, 57%.

`O=S(=O)(Nc1ccc2[nH]nc(-c3ccccc3)c2c1)c1ccc(-c2ccon2)s1` [Example 150, N-(3-Phenyl-1H-indazol-5-yl)-(5-isoxazol-3-ylthiophene)-2-sulfonamide]: the inhibition at 10 µM on human FAK came out at 3%; on human KDR enzyme, 75%; at Aurora2 kinase it was 82%.

`O=[N+]([O-])c1ccccc1CS(=O)(=O)Nc1ccc2[nH]nc(-c3ccccc3)c2c1` [Example 151, C-(2-Nitrophenyl)-N-(3-phenyl-1H-indazol-5-yl)-methanesulfonamide]: the inhibition at 10 µM at human FAK was found to be 33%; at human KDR enzyme, 63%; at Aurora2 kinase it was 84%.

On to `Cc1c(S(=O)(=O)Nc2ccc3[nH]nc(-c4ccccc4)c3c2)sc2ccc(Cl)cc12` [Example 153, N-(3-Phenyl-1H-indazol-5-yl)-(5-chloro-3-methyl-benzo[b]thiophene)-2-sulfonamide], for which the inhibition at 10 µM was 0% at human FAK, 24% on human KDR enzyme and 25% at Aurora2 kinase.

As for `O=S(=O)(Nc1ccc2[nH]nc(-c3ccccc3)c2c1)c1cccc(-c2ccccc2)c1` [Example 157, N-(3-Phenyl-1H-indazol-5-yl)-biphenyl-3-sulfonamide], the inhibition at 10 µM was 0% at human FAK, 63% at human KDR enzyme and 38% at Aurora2 kinase.

In the case of `O=S(=O)(Nc1ccc2[nH]nc(-c3ccccc3)c2c1)c1ccc(OC(F)(F)F)cc1` [Example 160, 4-Trifluoromethoxy-N-(3-phenyl-1H-indazol-5-yl)benzenesulfonamide], the results for the inhibition at 10 µM at human FAK, on human KDR enzyme and on Aurora2 kinase were 3%, 51% and 26%, respectively.

With `COc1ccc(Cl)cc1-c1n[nH]c2ccc(NS(=O)(=O)c3ccccc3S(C)(=O)=O)cc12` [Example 215, N-[3-(5-Chloro-2-methoxy-phenyl)-1H-indazol-5-yl]-2-methanesulfonyl-benzenesulfonamide], the figures for the inhibition at 10 µM at human FAK, at human KDR enzyme and on Aurora2 kinase were 97%, 39% and 86%, respectively.
